Measurements reported in US9481676B2, “Azepino[4,5-B]indoles and methods of use” (Medivation Technologies, Inc., priority 2008, dated 2016).

What was measured:
[1] = molecular target: T1, human recombinant adrenergic α1D receptor (Homo sapiens, UniProt P25100); assay: Adrenergic alpha1D radioligand binding ([3H]Prozosin); settings: compound at 1 μM; read-out: Adrenergic (1 μM) α1D, percent inhibition of specific binding
T1 construct: expressed in transfected cells; host or cells: HEK-293 cells
T1 sequence (P25100 1-572): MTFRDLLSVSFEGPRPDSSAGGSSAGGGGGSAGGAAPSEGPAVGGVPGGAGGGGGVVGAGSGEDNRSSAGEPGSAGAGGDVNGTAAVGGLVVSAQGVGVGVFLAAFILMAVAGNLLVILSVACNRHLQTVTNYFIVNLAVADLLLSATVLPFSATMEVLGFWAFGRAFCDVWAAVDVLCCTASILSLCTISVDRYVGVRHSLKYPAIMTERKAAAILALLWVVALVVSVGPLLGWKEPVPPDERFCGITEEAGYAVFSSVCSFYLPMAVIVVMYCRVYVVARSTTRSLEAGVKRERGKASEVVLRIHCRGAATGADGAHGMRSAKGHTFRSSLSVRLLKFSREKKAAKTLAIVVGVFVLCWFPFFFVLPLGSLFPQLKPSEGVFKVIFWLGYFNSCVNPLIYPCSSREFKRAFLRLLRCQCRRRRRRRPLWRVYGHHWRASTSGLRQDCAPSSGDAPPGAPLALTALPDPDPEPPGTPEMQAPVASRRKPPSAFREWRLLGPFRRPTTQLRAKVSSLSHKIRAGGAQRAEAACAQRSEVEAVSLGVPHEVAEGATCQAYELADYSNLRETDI
Method in brief: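 Membranes from HEK-293 cells expressing the human receptor in 50 mM Tris-HCl pH 7.4 were incubated 60 min at 25 °C with 0.6 nM [3H]prazosin. Nonspecific binding was defined with 10 μM phentolamine, and bound ligand measured by filtration.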

[2] = molecular target: T2, human recombinant serotonin (5-Hydroxytryptamine) 5-HT2C receptor (Homo sapiens, UniProt P28335); assay: Serotonin 5-HT2C radioligand binding ([3H]Mesulergine); settings: compound at 1 μM; read-out: Serotonin (1 μM) 5-HT2C, percent inhibition of specific binding
T2 construct: expressed in transfected cells; host or cells: CHO-K1 cells
T2 sequence (P28335 33-458): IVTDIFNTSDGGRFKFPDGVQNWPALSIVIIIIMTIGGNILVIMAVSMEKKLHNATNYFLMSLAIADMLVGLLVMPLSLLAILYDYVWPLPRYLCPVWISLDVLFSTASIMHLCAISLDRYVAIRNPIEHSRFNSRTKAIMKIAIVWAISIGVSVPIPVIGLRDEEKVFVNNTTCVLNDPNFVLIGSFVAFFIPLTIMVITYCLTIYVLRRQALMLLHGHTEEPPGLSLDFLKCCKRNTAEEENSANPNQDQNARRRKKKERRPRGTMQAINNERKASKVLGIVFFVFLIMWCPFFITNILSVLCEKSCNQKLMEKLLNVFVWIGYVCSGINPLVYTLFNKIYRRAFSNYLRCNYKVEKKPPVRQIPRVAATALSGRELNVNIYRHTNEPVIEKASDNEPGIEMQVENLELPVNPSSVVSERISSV
Method in brief: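 Membranes from CHO-K1 cells expressing human 5-HT2C, incubated with 1 nM [3H]mesulergine for 60 min at 25 °C in 50 mM Tris-HCl pH 7.4 with ascorbic acid and pargyline.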

[3] = molecular target: T3, human recombinant serotonin (5-Hydroxytryptamine) 5-HT6 receptor (Homo sapiens, UniProt P50406); assay: Serotonin 5-HT6 radioligand binding ([3H]LSD); settings: compound at 1 μM; read-out: Serotonin (1 μM) 5-HT6, percent inhibition of specific binding
T3 construct: expressed in transfected cells; host or cells: human HeLa cells
T3 sequence (P50406 whole entry): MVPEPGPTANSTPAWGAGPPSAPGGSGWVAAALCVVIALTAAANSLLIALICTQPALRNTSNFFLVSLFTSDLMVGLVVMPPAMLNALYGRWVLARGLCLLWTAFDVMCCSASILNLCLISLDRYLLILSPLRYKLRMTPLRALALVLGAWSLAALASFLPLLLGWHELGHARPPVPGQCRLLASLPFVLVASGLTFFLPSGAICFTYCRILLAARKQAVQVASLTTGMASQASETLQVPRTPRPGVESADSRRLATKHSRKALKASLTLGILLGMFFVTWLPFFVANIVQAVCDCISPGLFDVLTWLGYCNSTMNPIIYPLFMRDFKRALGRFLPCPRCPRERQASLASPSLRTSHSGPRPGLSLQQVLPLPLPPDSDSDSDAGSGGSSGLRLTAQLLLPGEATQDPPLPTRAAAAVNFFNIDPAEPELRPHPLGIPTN
Method in brief: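 Human recombinant 5-HT6 receptor from HeLa cells incubated with 1.5 nM [3H]LSD for 120 min at 37° C in 50 mM Tris-HCl pH 7.4, 150 mM NaCl, 2 mM ascorbic acid, 0.001% BSA. Nonspecific binding defined with 5 μM serotonin; bound ligand counted after filtration.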

SMILES | inhibition at 1 µM [1] [%] | inhibition at 1 µM [2] [%] | inhibition at 1 µM [3] [%]
COc1ccc(/C=C/n2c3c(c4cc(C)ccc42)CCN(C)CC3)c(F)c1 [Compound No. 230, (E)-6-(2-fluoro-4-methoxystyryl)-3,9-dimethyl-1,2,3,4,5,6-hexahydroazepino[4,5-b]indole] | 97 | 96 | 100
Cc1ccc2c(c1)c1c(n2CC(=O)N(C)C2CCCCC2)CCN(C)CC1 [Compound No. 232, N-cyclohexyl-2-(3,9-dimethyl-2,3,4,5-tetrahydroazepino[4,5-b]indol-6(1H)-yl)-N-methylacetamide] | 29 | 93 | 20
Cc1ccc2c(c1)c1c(n2/C=C/c2ccccc2F)CCN(C)CC1 [Compound No. 233, (E)-6-(2-fluorostyryl)-3,9-dimethyl-1,2,3,4,5,6-hexahydroazepino[4,5-b]indole] | 96 | 100 | 103
CN1CCc2c(n(/C=C/c3ccc(F)cc3)c3ccc(Cl)cc23)CC1 [Compound No. 234, (E)-9-chloro-6-(4-fluorostyryl)-3-methyl-1,2,3,4,5,6-hexahydroazepino[4,5-b]indole] | 97 | 98 | 103
Cc1ccc2c(c1)c1c(n2/C=C/c2ccc(Cl)cc2)CCN(C)CC1 [Compound No. 235, (E)-6-(4-chlorostyryl)-3,9-dimethyl-1,2,3,4,5,6-hexahydroazepino[4,5-b]indole] | 95 | 98 | 97
CN1CCc2c(n(/C=C/c3ccc(F)c(F)c3)c3ccc(Cl)cc23)CC1 [Compound No. 236, (E)-9-chloro-6-(3,4-difluorostyryl)-3-methyl-1,2,3,4,5,6-hexahydroazepino[4,5-b]indole] | 94 | 100 | 102
CN1CCc2c(n(CCc3ccccc3F)c3ccccc23)CC1 [Compound No. 237, 6-(2-fluorophenethyl)-3-methyl-1,2,3,4,5,6-hexahydroazepino[4,5-b]indole] | 70 | 100 | 103
C/C(=C\n1c2c(c3cc(C)ccc31)CCN(C)CC2)c1ccc(Cl)cc1Cl [Compound No. 238, (E)-6-(2-(2,4-dichlorophenyl)prop-1-enyl)-3,9-dimethyl-1,2,3,4,5,6-hexahydroazepino[4,5-b]indole] | 30 | 100 | 86
C/C(=C\n1c2c(c3cc(Cl)ccc31)CCN(C)CC2)c1ccc(Cl)cc1Cl [Compound No. 239, (E)-9-chloro-6-(2-(2,4-dichlorophenyl)prop-1-enyl)-3-methyl-1,2,3,4,5,6-hexahydroazepino[4,5-b]indole] | 28 | 97 | 59
CN1CCc2c(n(C#Cc3ccc(F)cc3)c3ccc(Cl)cc23)CC1 [Compound No. 281, 9-chloro-6-((4-fluorophenyl)ethynyl)-3-methyl-1,2,3,4,5,6-hexahydroazepino[4,5-b]indole] | 75 | 98 | 97
CN1CCc2c(n(C#Cc3ccc(Cl)cc3)c3ccc(Cl)cc23)CC1 [Compound No. 282, 9-chloro-6-((4-chlorophenyl)ethynyl)-3-methyl-1,2,3,4,5,6-hexahydroazepino[4,5-b]indole] | 67 | 103 | 71
Cc1ccc2c(c1)c1c(n2C(=O)Cc2ccc(F)cc2)CCN(C)CC1 [Compound No. 285, 1-(3,9-dimethyl-2,3,4,5-tetrahydroazepino[4,5-b]indol-6(1H)-yl)-2-(4-fluorophenyl) ethanone] | 89 | 99 | 94
